# From US7803793B2, “Heterocyclic derived metalloprotease inhibitors” (Janssen Pharmaceutica NV, priority 2006, dated 2010)
# Like-named read-outs stand apart in the source and are kept apart here.
# Legend:
# all MMPs tested = conditions: read-out: IC50's on all MMPs tested; cited from earlier work
# MMP-9 = molecular target: T1, MMP-9 (Homo sapiens, UniProt P14780); experiment: MMP enzymatic assay (Trupoint peptide), MMP-9; assay type: biochemical
# T1 construct: Human MMP-9 catalytic domain (aa 107-446)
# MMP-2 = molecular target: T2, MMP-2 (Homo sapiens, UniProt P08253); experiment: MMP enzymatic assay (Trupoint peptide), MMP-2; assay type: biochemical
# T2 construct: Human MMP-2 full length (aa 1-660)
# T2 sequence (P08253 30-660): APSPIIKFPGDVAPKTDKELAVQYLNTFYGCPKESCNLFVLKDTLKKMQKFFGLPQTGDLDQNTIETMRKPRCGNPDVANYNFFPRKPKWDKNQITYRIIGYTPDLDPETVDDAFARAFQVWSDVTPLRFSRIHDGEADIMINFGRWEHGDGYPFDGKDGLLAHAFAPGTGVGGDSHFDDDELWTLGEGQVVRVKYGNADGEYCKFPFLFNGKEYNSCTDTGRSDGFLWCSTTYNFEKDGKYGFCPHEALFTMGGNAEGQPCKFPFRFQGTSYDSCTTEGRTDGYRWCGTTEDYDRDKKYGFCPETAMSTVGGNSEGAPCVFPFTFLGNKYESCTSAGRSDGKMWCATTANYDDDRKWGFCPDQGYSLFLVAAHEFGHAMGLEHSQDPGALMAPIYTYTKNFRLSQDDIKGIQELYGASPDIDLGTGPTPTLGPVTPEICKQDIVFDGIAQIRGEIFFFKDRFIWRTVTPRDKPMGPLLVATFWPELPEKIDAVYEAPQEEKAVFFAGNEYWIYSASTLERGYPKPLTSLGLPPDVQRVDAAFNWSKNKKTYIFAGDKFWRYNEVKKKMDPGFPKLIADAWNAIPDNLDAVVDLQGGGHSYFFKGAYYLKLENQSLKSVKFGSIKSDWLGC
# T1 sequence (P14780 107-446): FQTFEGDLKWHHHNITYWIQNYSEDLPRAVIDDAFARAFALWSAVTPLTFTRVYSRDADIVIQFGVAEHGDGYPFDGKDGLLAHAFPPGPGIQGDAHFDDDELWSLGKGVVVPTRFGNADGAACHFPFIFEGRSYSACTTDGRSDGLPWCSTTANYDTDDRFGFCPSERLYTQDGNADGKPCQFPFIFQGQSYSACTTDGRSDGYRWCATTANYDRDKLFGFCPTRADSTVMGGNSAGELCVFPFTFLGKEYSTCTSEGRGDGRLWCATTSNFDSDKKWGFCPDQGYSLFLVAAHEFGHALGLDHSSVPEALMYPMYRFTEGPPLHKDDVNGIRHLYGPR
Compound,IC50 (all MMPs tested),IC50 (MMP-9),IC50 (MMP-2),IC50 (MMP-2; read-out: MMP-2 nM IC50)
CNC(=O)[C@H](Cc1c[nH]c2ccccc12)NC(=O)[C@H](Cc1ccccc1)C1OCCN(O)C1=O (some centres unmarked),20100 to 104000 nM,–,–,–
"O=C1[C@H](NS(=O)(=O)c2ccc(Oc3ccc(C(F)(F)F)cc3)cc2)CCCN1O [Compound 58, (R)—N-(1-Hydroxy-2-oxo-piperidin-3-yl)-4-(4-trifluoromethyl-phenoxy)-benzenesulfonamide]",–,743 nM,46.7 nM,–
"COc1ccc(Oc2ccc(N(Cc3cccn(O)c3=O)S(C)(=O)=O)cc2)cc1 [Compound 53, N-(1-Hydroxy-2-oxo-1,2-dihydro-pyridin-3-ylmethyl)-N-[4-(4-methoxy-phenoxy)-phenyl]-methanesulfonamide]",–,14.7 nM,184 nM,–
O=C1C(N(CCN2CCOCC2)S(=O)(=O)c2ccc(-c3ccc(Cl)cc3)s2)CC=CCN1O (centres unmarked) [Compound 93],–,17.2 nM,16.4 nM,–
"Cc1ccc(N(C)S(=O)(=O)c2ccc(Oc3ccc(Cl)cc3)cc2)c(=O)n1O [Compound 33, 4-(4-Chloro-phenoxy)-N-(1-hydroxy-6-methyl-2-oxo-1,2-dihydro-pyridin-3-yl)-N-methyl-benzenesulfonamide]",–,34.9 nM,–,66.4 nM
"CS(=O)(=O)N(Cc1cccn(O)c1=O)c1ccc(Oc2ccc(C(F)(F)F)cc2)cc1 [Compound 43, N-(1-Hydroxy-2-oxo-1,2-dihydro-pyridin-3-ylmethyl)-N-[4-(4-trifluoromethyl-phenoxy)-phenyl]-methanesulfonamide]",–,233 nM,491 nM,–
"Cc1ccc2[nH]c(-c3ccc(S(=O)(=O)C4CCCCN(O)C4=O)cc3)nc2c1 (centres unmarked) [Compound 75, 1-Hydroxy-3-[4-(5-methyl-1H-benzoimidazol-2-yl)-benzenesulfonyl]-azepan-2-one]",–,> 1000 nM,> 1000 nM,–
"O=c1c(COc2ccc(-c3ccc(Br)cc3)cc2)cccn1O [Compound 41, 3-(4′-Bromo-biphenyl-4-yloxymethyl)-1-hydroxy-1H-pyridin-2-one]",–,7140 nM,> 10000 nM,–
"O=C1C(S(=O)(=O)c2ccc(F)cc2)CCCCN1O (centres unmarked) [Compound 79, 3-(4-Fluoro-benzenesulfonyl)-1-hydroxy-azepan-2-one]",–,> 1000 nM,> 1000 nM,–
"COc1ccc(Oc2ccc(S(=O)(=O)Cn3cccc(O)c3=O)cc2)cc1 [Compound 66, 3-Hydroxy-1-[4-(4-methoxy-phenoxy)-benzenesulfonylmethyl]-1H-pyridin-2-one]",–,56.1 nM,–,84.5 nM
"Cc1ccc(Oc2ccc(N(C(C)c3cccn(O)c3=O)S(C)(=O)=O)cc2)cc1 (centres unmarked) [Compound 50, N-[1-(1-Hydroxy-2-oxo-1,2-dihydro-pyridin-3-yl)-ethyl]-N-(4-p-tolyloxy-phenyl)-methanesulfonamide]",–,223 nM,2550 nM,–
"COc1ccc(-c2ccc(S(=O)(=O)Cn3cccc(O)c3=O)cc2)cc1 [Compound 67, 3-Hydroxy-1-(4′-methoxy-biphenyl-4-sulfonylmethyl)-1H-pyridin-2-one]",–,> 10000 nM,> 10000 nM,–
